In PubChem BioAssay (NCI):
Several values for one entry are separate records, joined by “and”; a condition that tells them apart may be missing. Equal values may be shown once.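 Cells were grown in 96-well plates and exposed to each compound for 48 hours at five concentrations; endpoints were interpolated linearly between bracketing concentrations, or set to the highest concentration if not reached. GI50 = concentration required for 50% inhibition of growth. At the TGI there is no net growth.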

How the values were obtained:
Experiment in all cases: NCI-60 cell line screen, 48 h
HS 578T breast = system: HS 578T breast
A498 renal = system: A498 renal
BT-549 breast = system: BT-549 breast
PC-3 prostate = system: PC-3 prostate
SK-OV-3 ovarian = system: SK-OV-3 ovarian
HCT-15 colon = system: HCT-15 colon
LOX IMVI melanoma = system: LOX IMVI melanoma
786-0 renal = system: 786-0 renal
UO-31 renal = system: UO-31 renal
HOP-62 NSCLC = system: HOP-62 NSCLC

SMILES | GI50 (HS 578T breast) [µM] | TGI (HS 578T breast) | GI50 (A498 renal) [µM] | TGI (A498 renal) [µM] | GI50 (BT-549 breast) [µM] | TGI (BT-549 breast) [µM] | GI50 (PC-3 prostate) [µM] | TGI (PC-3 prostate) [µM] | GI50 (SK-OV-3 ovarian) [µM] | TGI (SK-OV-3 ovarian) [µM] | GI50 (HCT-15 colon) [µM] | TGI (HCT-15 colon) [µM] | GI50 (LOX IMVI melanoma) [µM] | TGI (LOX IMVI melanoma) [µM] | GI50 (786-0 renal) [µM] | TGI (786-0 renal) [µM] | GI50 (UO-31 renal) [µM] | TGI (UO-31 renal) [µM] | GI50 (HOP-62 NSCLC) [µM] | TGI (HOP-62 NSCLC)
O=C1Nc2ccccc2/C1=C/c1cn(C(=O)c2c(Cl)cccc2Cl)c2ccccc12 | 2.17 | 8.98 µM | 1.25 | 4.32 | 2.4 | 8.95 | 2.39 | 11.2 | 8.35 | 56.5 | 3.46 | 22.6 | 1.59 | 3.24 | 3.28 | 12.7 | 1.14 | 7.5 | 12.8 | 40.4 µM
CC1CC(C)/C(=N/NC(N)=O)C(C(O)CC2CCC(=O)NC2=O)C1 (configuration not stated) | 1.34 | 8.25 µM | 4.94 | 92.4 | 7.08 | > 100 | 4.1 | > 100 | 4.08 | > 100 | 3.39 | > 100 | 2.48 | > 100 | 3.46 | > 100 | 2.33 | 34.3 | 2.99 | > 100 µM
c1ccc2c(-c3nc4ccccc4[nH]3)cccc2c1 | 2.49 | 17.2 µM | 1.11 | 6.52 | 3.3 | 80 | 3.88 | > 100 | 4.04 | 27.3 | 1.82 | > 100 | 7.11 | > 100 | 5.5 | > 100 | 4.72 | 33.3 | 5.35 | 30.3 µM
Oc1ccc2ccccc2c1C(c1ccc(Cl)cc1)c1c(O)ccc2ccccc12 |  | 8.62 µM |  | 9.36 |  | 14.1 |  | 7.7 |  | 19.9 |  | > 30.2 |  | 8.11 |  | 12.4 |  | 10.6 |  | 16 µM
O=c1oc2ccc(F)cc2c(=O)n1-c1ccc(Cl)cc1F | 0.572 | 5.77 µM | 0.24 | 0.796 | 0.488 | 2.43 | 1.5 | 6.32 | 0.584 | 2.58 | 1.26 | 10.3 | 0.527 | 6.97 | 2.8 | 8.85 | 0.264 | 2.52 | 1.57 | 6.53 µM
C/C1=C\CC[C@@]2(C)O[C@@H]2C[C@@H]2[C@H](C/C(C)=C/CC1)OC(=O)C21CCN=N1 (some centres not stated) | > 100 | 75 µM and > 100 µM |  | > 100 | > 100 | > 100 | > 100 | > 100 |  | > 75 | > 100 | > 100 |  | 75 | > 100 | > 100 | > 100 | > 100 | > 100 | 75 µM and > 100 µM
